Source: patent US20260232639A1, “COMPOUNDS FOR USE IN THE TREATMENT OF SCHIZOPHRENIA” (ONTRACK THERAPEUTICS LIMITED, priority 2023, published 2026)

What was measured:
[1] = system: PSD95; test: Simple Western of synaptic marker PSD95 in prefrontal cortex of scPCP-treated rats; assay type: in vivo, rat; details: Example 4, 21-day treatment
Method: (§1) Remaining ½ brains (remaining hemispheres) were processed for protein analysis of BDNF using ELISA (quantified in the prefrontal cortex and the dorsal hippocampus) and synaptic markers using Simple Western (quantified in the prefrontal cortex).
Prefrontal Cortex and dorsal hippocampus were dissected from the frozen brain and homogenised on ice in a 10-fold volume (mg:μL) of buffer (10 mM Trizma base, Sigma-Aldrich; […] sucrose, Sigma-Aldrich; 2 mM EDTA, Sigma-Aldrich; and protease- and phosphatase-inhibitor cocktails, Sigma-Aldrich) buffered to a pH of 7.4. Phenylmethylsulfonyl fluoride (PMSF) and sodium orthovanadate were added to the solution at a 1% (v/v) concentration. Samples were centrifuged at 800×g for 15 minutes at 4° C. […]
Protein concentrations of each sample were calculated using a Bradford Assay. […]
A WES plate was prepared following the provided instructions (SM-W004, ProteinSimple). […] Finally, the chemiluminescent substrate was added into the capillaries, and the camera detected the levels of chemiluminescence at 9 different timepoints (1-512 seconds). The software then calculated the high dynamic range (HDR) of the peaks, which is calculated from the individual exposures and provides the largest dynamic range of the signal with the lowest background. The HDR peak is then used to calculate the area under the curve, which is analogous to the quantity of protein in the sample. […]

[2] = system: SNAP25; test: Simple Western of synaptic marker SNAP25 in prefrontal cortex of scPCP-treated rats; assay type: in vivo, rat; details: 21-day treatment; for SNAP25 levels in the total prefrontal cortex (FIG. 18): Example 3, vs scPCP; for scPCP-induced loss of SNAP25, relative protein level in prefrontal cortex (FIG. 21): Example 4
Method: as §1
(§2) Prefrontal Cortex and dorsal hippocampus were dissected from the frozen brain and homogenised on ice in a 10-fold volume (mg:μL) of buffer (10 mM Trizma base, Sigma-Aldrich; […] sucrose, Sigma-Aldrich; 2 mM EDTA, Sigma-Aldrich; and protease- and phosphatase-inhibitor cocktails, Sigma-Aldrich) buffered to a pH of 7.4. Phenylmethylsulfonyl fluoride (PMSF) and sodium orthovanadate were added to the solution at a 1% (v/v) concentration. Samples were centrifuged at 800×g for 15 minutes at 4° C. The supernatant was collected and centrifuged at 11,700×g for 20 minutes, and the resulting supernatant was collected and stored at −20° C. until analysis.
Protein concentrations of each sample were calculated using a Bradford Assay. Samples were diluted into protein assay dye reagent concentrate (BioRad) and compared to bovine serum albumin (Sigma) of known concentration (1.0-0.1 mg/ml protein). A standard curve was created using a simple linear regression. Standards and samples were run in triplicate. An outlying value from a triplicate was removed if the CV value was greater than 10%.
A WES plate was prepared following the provided instructions (SM-W004, ProteinSimple). Diluted samples were mixed with dithiothreitol and fluorescent master mix in an 8:1:1 ratio. Samples were denatured at 95° C. for five minutes. The samples, antibody diluent, primary antibody, secondary antibody and luminol-peroxide mix were loaded into appropriate wells. A biotinylated ladder, antibody diluent, streptavidin-HRP and luminol peroxide were also loaded. After brief centrifugation of the plate, wash buffer was added. The plate was then placed into the WES machine, whereby the load separation matrix is aspirated, and stacking matrix drawn up into each capillary. […] Finally, the chemiluminescent substrate was added into the capillaries, and the camera detected the levels of chemiluminescence at 9 different timepoints (1-512 seconds). The software then calculated the high dynamic range (HDR) of the peaks, which is calculated from the individual exposures and provides the largest dynamic range of the signal with the lowest background. The HDR peak is then used to calculate the area under the curve, which is analogous to the quantity of protein in the sample. […]
(§3) BDNF and synaptic markers were analysed using a one-way ANOVA followed by planned post hoc analysis to investigate differences between treatment groups for Prefrontal Cortex (BDNF & Synaptic markers) and Dorsal Hippocampus (BDNF) respectively.

[3] = system: parvalbumin interneurons; test: Parvalbumin immunohistochemistry in brains of scPCP-treated rats; assay type: in vivo, rat; details: 21-day treatment, 30 mg/kg p.o.
Method: Animals were culled by increasing concentration of carbon dioxide and death was confirmed by cervical dislocation. Brains were removed, frozen on dry ice and stored at −80° C. until analysis.
½ brains (one hemisphere) were randomly selected and processed for parvalbumin immunohistochemistry (IHC), quantified in the prefrontal cortex and dorsal hippocampus.
Sections (30 μm thickness) were washed in 1× PBS three times for five minutes each. Sections underwent heat-induced antigen retrieval in sodium citrate buffer (0.294% (w/v) sodium citrate, 0.07% (v/v) tween-20, 500 ml distilled water, pH adjusted to 6.0) for 30 minutes at 80° C. Unless otherwise stated, samples were washed twice in 1× PBS between each step.
Parvalbumin (PV) sections were processed for light microscopy. […]
Images were acquired on a 3D-Histech Pannoramic-250 microscope slide-scanner using a 20×/0.80 Plan Apochromat objective (Zeiss). […] For PV images, the region of interest was delineated, and the number of cell detections were manually counted within the CaseViewer software. Density was calculated by dividing the number of positive cell detections by the area of the region of interest.
Parvalbumin density in the Prefrontal Cortex and Dorsal Hippocampus were analysed using a repeated measure two-way ANOVA with region and treatment as fixed factors. […]

[4] = system: scPCP treated rats; test: Attentional set-shifting task (ASST) in sub-chronic PCP treated rats; details: for Number of trials to criterion in the EDS phase (FIG. 20): 21-day treatment, compared to scPCP group
[5] = system: BDNF; test: BDNF ELISA in brain tissue of scPCP-treated rats; assay type: in vivo, rat; details: Example 4; 21-day treatment; two different protein concentrations
Method: as §1, §2
Protein concentrations of each sample were calculated using a Bradford Assay. Samples were diluted into protein assay dye reagent concentrate (BioRad) and compared to bovine serum albumin (Sigma) of known concentration (1.0-0.1 mg/ml protein). […]
as §3

[6] = system: scPCP treated rats; test: Social interaction test in sub-chronic PCP treated rats; details: for Object exploration duration, inanimate object (FIG. 10): 21-day test article 10 & 30 mg/kg p.o.
[7] = system: scPCP treated rats; test: Novel object recognition (NOR) test in sub-chronic PCP treated rats; details: for Time spent exploring the novel versus familiar object in the retention trial (FIG. 6): 20-day treatment with compound of Formula I 10 & 30 mg/kg p.o.; for Time spent exploring the novel versus familiar object in the retention trial (FIG. 2): compound of Formula I 10 & 30 mg/kg p.o.
[8] = system: scPCP treated rats; details: 7-day treatment; female rats; McLean et al., 2008, 2012; cited from earlier work
[9] = biological target: tropomyosin receptor kinase B (TrkB) (Homo sapiens, UniProt Q16620); details: known from the art; cited from earlier work
[10] = acute risperidone 0.1 mg/kg i.p.
[11] = acute risperidone 0.1 mg/kg i.p., scPCP rats
[12] = acute treatment, risperidone 0.1 mg/kg i.p., scPCP rats
[13] = 20-day phase, scPCP rats, acute risperidone 0.1 mg/kg i.p.
[14] = acute phase, scPCP rats, risperidone 0.1 mg/kg i.p., 60 min prior to testing

Sequence of tropomyosin receptor kinase B (TrkB) (Q16620 32-822, species assumed): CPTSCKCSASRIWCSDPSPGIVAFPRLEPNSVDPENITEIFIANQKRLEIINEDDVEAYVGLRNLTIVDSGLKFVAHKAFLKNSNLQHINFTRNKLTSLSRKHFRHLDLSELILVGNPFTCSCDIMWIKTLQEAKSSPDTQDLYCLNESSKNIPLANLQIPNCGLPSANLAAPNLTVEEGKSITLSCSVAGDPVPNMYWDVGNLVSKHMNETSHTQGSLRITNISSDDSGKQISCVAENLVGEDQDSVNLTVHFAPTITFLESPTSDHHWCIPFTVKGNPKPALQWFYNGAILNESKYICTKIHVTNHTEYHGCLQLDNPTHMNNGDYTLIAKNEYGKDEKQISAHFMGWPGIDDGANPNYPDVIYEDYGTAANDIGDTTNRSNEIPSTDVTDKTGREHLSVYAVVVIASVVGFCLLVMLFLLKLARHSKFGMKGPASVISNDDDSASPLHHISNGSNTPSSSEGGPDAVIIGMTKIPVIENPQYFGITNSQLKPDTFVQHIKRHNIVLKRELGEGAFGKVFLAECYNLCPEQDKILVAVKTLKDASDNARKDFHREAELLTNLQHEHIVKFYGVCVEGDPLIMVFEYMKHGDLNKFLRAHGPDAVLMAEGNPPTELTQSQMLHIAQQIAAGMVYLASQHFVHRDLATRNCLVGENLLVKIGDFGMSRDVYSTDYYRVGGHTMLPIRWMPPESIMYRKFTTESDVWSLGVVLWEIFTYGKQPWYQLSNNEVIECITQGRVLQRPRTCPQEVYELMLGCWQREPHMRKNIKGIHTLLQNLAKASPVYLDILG

N#Cc1ccc(-c2cc(=O)c3ccc4[nH]c(C(F)(F)F)nc4c3o2)cc1 [Compound of Formula I, 4-(6-oxo-2-(trifluoromethyl)-3,6-dihydrochromeno[7,8-d]imidazol-8-yl)benzonitrile]
scPCP-induced loss of PSD95, relative protein level in prefrontal cortex (FIG. 21) ([1]; 30 mg/kg p.o.): not
scPCP-induced loss of PSD95, relative protein level in prefrontal cortex (FIG. 21) ([1]; 3 and 10 mg/kg p.o.): significantly alleviated
SNAP25 levels in the total prefrontal cortex (FIG. 18) ([2]; 10 mg/kg p.o.): increased significantly
SNAP25 levels in the total prefrontal cortex (FIG. 18) ([2]; 30 mg/kg p.o.): not
scPCP-induced loss of SNAP25, relative protein level in prefrontal cortex (FIG. 21) ([2]; 30 mg/kg p.o.): not
scPCP-induced loss of SNAP25, relative protein level in prefrontal cortex (FIG. 21) ([2]; 3 and 10 mg/kg p.o.): significantly alleviated
PV cell density in the total prefrontal cortex (FIG. 13) ([3]; compared to scPCP group): significantly increased
PV cell density in subregions of the prefrontal cortex (Cg1, PrL, IL) (FIG. 12) ([3]; vs scPCP): significantly increased
Number of trials to criterion in the EDS phase (FIG. 20) ([4]; 3 mg/kg p.o.): No significant reduction
Number of trials to criterion in the EDS phase (FIG. 20) ([4]; 10 mg/kg p.o.): near significant reductions
Number of trials to criterion in the EDS phase (FIG. 20) ([4]; 30 mg/kg p.o.): significant reductions
Concentration of BDNF in the dorsal hippocampus (FIG. 22) [5]: increase the level of BDNF back to that of vehicle treated animals
Object exploration duration, inanimate object (FIG. 10) [6, 10]: no differences
Sniffing duration, social impairment deficit (FIG. 9) ([6]; 21-day treatment, 10 & 30 mg/kg p.o.): able to rescue the social impairment deficit in the scPCP treated rats in a dose dependent manner
Time spent exploring the novel versus familiar object in the retention trial (FIG. 6) [7, 11]: dose dependent statistically significant effect
Discrimination index (DI) (FIG. 7) ([7]; 20-day treatment, 30 mg/kg p.o., compared to scPCP animals without treatment): statistically significant increase
Time spent exploring the novel versus familiar object in the retention trial (FIG. 2) [7, 12]: not shown to have a difference

Cc1nc2n(c(=O)c1CCN1CCC(c3noc4cc(F)ccc34)CC1)CCCC2 [Risperidone, risperidone]
scPCP-induced deficit in the EDS phase (FIG. 20) [4, 10]: significantly (P<0.01) reversed
Reversal of scPCP deficit in the extra-dimensional shift [8]: reversed
Object exploration duration, inanimate object (FIG. 10) [6, 10]: no differences
Sniffing duration (FIG. 9) ([6]; acute risperidone 0.1 mg/kg i.p., 60 min prior to testing): increase the amount of time the rat spent sniffing to a similar level as that observed by the higher dose of test article
Acquisition total exploration time [7, 13]: 25.5 ± 3.4 s
Retention total exploration time [7, 13]: 17.8 ± 1.1 s
Time spent exploring the novel versus familiar object in the retention trial (FIG. 6) [7, 11]: statistically significant increase
Acquisition total exploration time [7, 14]: 22.81 ± 4.03 s
Retention total exploration time [7, 14]: 23.10 ± 2.92 s
Time spent exploring the novel versus familiar object in the retention trial (FIG. 2) [7, 12]: statistically significant increase
Discrimination index (DI) (FIG. 3) [7, 12]: higher discrimination index (DI) than those without treatment

O=C(CCCN1CCC(O)(c2ccc(Cl)cc2)CC1)c1ccc(F)cc1 [haloperidol]
Reversal of scPCP deficit in the extra-dimensional shift [8]: not

O=c1cc(-c2ccccc2)oc2c(O)c(O)ccc12 [tropoflavin, 7,8-dihydroxyflavone]
Agonism of TrkB [9]: potent and selective agonist
